Test results as given in patent US20140308357A1, “MELATONIN-BASED SOLUTIONS AND POWDERS FOR THEIR PREPARATION” (Eratech S.R.L., priority 2011, published 2014).
Values after ≈ are worked out from the molar mass of the structure shown.

How the values were obtained:
[1] = cited from earlier work
[2] = Dissolution speed of the powder for reconstitution in water/PEG-400 (80/20); format: physicochemical; conditions: 25° C.
Description: The entire test was conducted in temperature conditions of 25° C.
After 1 minute of manual stirring the two solutions were left to settle for 1 minute.
After 1 minute of sedimentation, the supernatant solution was sampled by taking 1 ml of it and analysing it according to the HPLC method described previously.

[3] = Osmolality and pH of solutions for administration in Water/PEG 400; format: physicochemical
[4] = Solubility of the powder for reconstitution (saturated solution, filtered, HPLC); format: physicochemical; conditions: thermodynamic from solid
Description: Following the preparation of a saturate solution of the powders obtained, the same solution was filtered with a […] membrane and the filtered solution obtained was analysed by HPLC according to the method described previously.

[5] = Water/PEG 400 ratio 70/30, melatonin 18 mg/ml
[6] = Water/PEG 400 ratio 75/25, melatonin 14 mg/ml
[7] = Water/PEG 400 ratio 80/20, melatonin 10 mg/ml
[8] = Water/PEG 400 ratio 85/15, melatonin 7 mg/ml
[9] = Water/PEG 400 ratio 90/10, melatonin 5 mg/ml

In the case of `COc1ccc2[nH]cc(CCNC(C)=O)c2c1` [Melatonin raw material, Melatonin], the “Concentration of melatonin in plasma” value ([1]; endogenous, circulates bound to albumin) is listed as 0.01 to 0.3 ng/mL, the Bioavailability ([1]; in vivo) is listed as “approximately 15%” and the “Clearance following first passage through the liver” value ([1]; in vivo) is listed as 90%. For the same molecule, the Half-life ([1]; in vivo) was 30 to 60 min, the “Visual inspection of the preparation” value ([2]; 30 mg melatonin in 3 ml water/PEG-400 (80/20), 1 minute manual stirring, after 1 minute settling) was “presence of undissolved particulate” and the “Concentration of melatonin in the supernatant solution” value ([2]; 30 mg melatonin in 3 ml water/PEG-400 (80/20), 1 minute stirring and 1 minute sedimentation) was 7100 µg/mL. The “Concentration of melatonin in solution” value ([2]; water/PEG-400 (80/20), after 10 minutes of stirring) was 7900 µg/mL, the Osmolality [3, 5] was 1310 mOsm/Kg and the pH [3, 5] was 5.2. For the same molecule, the Osmolality [3, 6] was 1014 mOsm/Kg, the pH [3, 6] was 5.2 and the Osmolality [3, 7] was 754 mOsm/Kg. It also gave a pH [3, 7] of 5.2, an Osmolality [3, 8] of 530 mOsm/Kg and a pH [3, 8] of 5.2. It also gave an Osmolality [3, 9] of 335 mOsm/Kg, a pH [3, 9] of 5.2 and a solubility ([4]; purified water, water, Water (Table 3a)) of 1.8 mg/mL (≈ 7.75 mM). The solubility ([4]; purified water, water, Water (Table 3b)) was 1.7 mg/mL (≈ 7.32 mM), the solubility ([4]; water/PEG-200 (75/25), aqueous with cosolvent or surfactant or cyclodextrin, Water-PEG 75/25, PEG 200) was 10.5 mg/mL (≈ 45.2 mM) and the solubility ([4]; water/PEG-350 (75/25), aqueous with cosolvent or surfactant or cyclodextrin, Water-PEG 75/25, PEG 350) was 16.9 mg/mL (≈ 72.8 mM). The solubility ([4]; water/PEG-400 (75/25), aqueous with cosolvent or surfactant or cyclodextrin, Water-PEG 75/25, PEG 400) was 14.5 mg/mL (≈ 62.4 mM), the solubility ([4]; water/PEG-400 (80/20), aqueous with cosolvent or surfactant or cyclodextrin, Water-PEG-400 ratio 80-20) was 11.1 mg/mL and the solubility ([4]; water/PEG-400 (90/10), aqueous with cosolvent or surfactant or cyclodextrin, Water-PEG-400 ratio 90-10) was 5 mg/mL. It also gave a solubility ([4]; water/ethanol (70/30), aqueous with cosolvent or surfactant or cyclodextrin, Water-Ethanol ratio 70-30) of 19.7 mg/mL, a solubility ([4]; water/ethanol (75/25), aqueous with cosolvent or surfactant or cyclodextrin, Water-Ethanol ratio 75-25) of 14.2 mg/mL and a solubility ([4]; water/ethanol (80/20), aqueous with cosolvent or surfactant or cyclodextrin, Water-Ethanol ratio 80-20) of 8.2 mg/mL. For the same molecule, the solubility ([4]; water/ethanol (90/10), aqueous with cosolvent or surfactant or cyclodextrin, Water-Ethanol ratio 90-10) was 3.7 mg/mL.
